# Read-outs that look alike come from different tables or passages of the source.
# Tests used:
# [1] = cited from earlier work
# [2] = Binding affinity (log Ka) of guests for the macrocyclic receptor cucurbit[7]uril; conditions: PtC as indicator for CB7 (CB7⊃PtC inclusion complex), result in words
# [3] = binding affinity for CB7 (host-guest complex)
Compound,"log Ka [1, 3]",other results
NCCc1c[nH]c2ccc(O)cc12 [serotonin],4.8,–
OCCOCCOCCn1cc2[n+](n1)[Pt-2]([Cl])([Cl])[n+]1ccccc1-2 [PtC],–,binding affinity [2]: intermediate
NCCc1ccc(O)c(O)c1 [dopamine],5.0,–
CC(=O)O[C@H]1C[C@@H]2CC[C@@H]3[C@H](CC[C@@]4(C)[C@H]3C[C@H]([N+]3(C)CCCCC3)[C@@H]4OC(C)=O)[C@@]2(C)C[C@@H]1[N+]1(C)CCCCC1 [pancuronium bromide],–,log Ka [1]: 10.23
